Tests used:
Format in all cases: in vivo
[1] = tested on: Myzus persicae aphids; assay: Leaf dip assay (based on IRAC susceptibility test method 019), mortality assessment; conditions: unformulated, mortality assessed at 72, 96 and 120 hours, compared to negative control vehicle and Spirotetramat (Figures 6-8)
Procedure: The assay was carried out based on IRAC susceptibility test method 019 (https://irac-online.org/methods/aphids-adultnymphs/).
Fill a small 4 cm wide 3 cm high dish with a 1% agar treatment solution of the active chemical or control (ensuring 1 cm gap between the agar and the lid) and leave to set. Dip a 2.5 cm leaf disc into 3 ml of treatment solution allowing the treatment to coat the leaf. Leave the disc to dry for 1 hour and place onto the set agar. Place insects (Myzus persicae aphids) onto each of the leaf discs. Each unit is sealed with a close-fitting, ventilated lid. Place the agar dishes in a small plastic tray lined with moist tissue paper and ensure the water trays in the bottom of the incubator are filled with clean water and place within the incubator. An assessment of mortality is made at 72, 96 and 120 hours. Leaf dip assays were performed with SB-P-66, and compared to a negative control vehicle and a current commercial insecticide Spirotetramat. The activity of SB-P-66 is shown in Figures 6 and 7; SB-P-66 has good activity whilst being eco-friendly and targeted to specific pests unlike broad spectrum chemical insecticides such as Spirotetramat.

[2] = tested on: Bumblebee; assay: Bee oral toxicity test (adapted from OECD Test No. 247: Bumblebee, Acute Oral Toxicity Test); conditions: % survival after 96 hours of application, compared with sucrose or vehicle and with Imidacloprid (Figure 9)
Procedure: Bee oral testing protocol was carried out adapted from OECD Test No. 247: Bumblebee, Acute Oral Toxicity Test. The toxicity of SB-P-66 was compared with a negative control of sucrose or vehicle, and with a current commercial insecticide Imidacloprid.

[3] = tested on: Aphis fabae; assay: Field trials, naturally infested plants (PGRO, vining peas); conditions: unformulated, acting comparably to commercial insecticides (Figures 10, 13)
Procedure: (§1) A) and 16 days after second application (App.
(§2) Field trials for peptide SB-P-66, unformulated, against various insects were conducted by third-party organisations PGRO and AgriScience.

[4] = tested on: Aphis gossypii; assay: Field trials, naturally infested plants (AgriScience, cotton and melon); conditions: unformulated, acting comparably to commercial insecticides (Figures 11, 12)
Procedure: as §1, §2

[5] = tested on: Amrasca biguttula (leaf hopper); assay: Field trials, naturally infested plants; conditions: unformulated; over time; acting comparably to commercial insecticides (Figure 14)
Procedure: as §1, §2

[6] = tested on: Myzus persicae; assay: Field trials; conditions: unformulated; acting comparably to commercial insecticides
Procedure: as §2

## H-PAFSSWG-NH2 [SB-P-66, [Hy]-PAFSSWG-[NH2]]
[1]
  activity against Myzus persicae (mortality): good activity
[2]
  bee oral toxicity (% survival): far lower toxicity
[3]
  efficacy in field trials against Aphis fabae: good efficacy
[4]
  efficacy in field trials against Aphis gossypii: good efficacy
[5]
  efficacy in field trials against Amrasca biguttula: good efficacy
[6]
  efficacy in field trials against Myzus persicae: good efficacy
